{
  "source": "paper PMC9710212",
  "about": "(Chemical Science, 2022)",
  "key": {"PARP16 [1]": {"test_system": "PARP16", "conditions": "cited from earlier work"}, "PARP16 [2]": {"biological_target": "T1, PARP16 (Homo sapiens, UniProt Q8N5Y8)", "T1 sequence (Q8N5Y8 1-322)": "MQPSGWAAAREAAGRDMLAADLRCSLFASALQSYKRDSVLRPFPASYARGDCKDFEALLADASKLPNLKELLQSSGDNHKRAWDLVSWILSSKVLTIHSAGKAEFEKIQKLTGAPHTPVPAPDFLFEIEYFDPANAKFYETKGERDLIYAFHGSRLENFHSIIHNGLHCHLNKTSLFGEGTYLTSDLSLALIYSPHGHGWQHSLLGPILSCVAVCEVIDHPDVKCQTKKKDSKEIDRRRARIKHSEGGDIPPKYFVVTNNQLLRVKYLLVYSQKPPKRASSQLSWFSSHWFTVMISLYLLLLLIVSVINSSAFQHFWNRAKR", "test": "Nutrient starvation", "type": "cell-based", "conditions": "HAP1 WT, HBSS 16 h; for effect on PARP16 levels under amino acid and serum starvation: 10 μM MG132, 1 μM bafilomycin A1, 50 μM chloroquine"}, "PARP16ΔTM": {"biological_target": "T2, PARP16ΔTM (Homo sapiens, UniProt Q8N5Y8)", "T2 sequence (Q8N5Y8 1-287 limits assumed)": "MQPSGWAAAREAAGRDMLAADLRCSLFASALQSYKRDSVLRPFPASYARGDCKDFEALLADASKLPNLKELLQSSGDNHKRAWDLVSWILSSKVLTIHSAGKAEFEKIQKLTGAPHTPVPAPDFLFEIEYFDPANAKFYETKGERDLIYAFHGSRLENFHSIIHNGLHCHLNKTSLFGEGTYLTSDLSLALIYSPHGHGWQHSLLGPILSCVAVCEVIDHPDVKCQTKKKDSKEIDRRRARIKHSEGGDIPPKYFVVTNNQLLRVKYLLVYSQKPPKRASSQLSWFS", "test": "in vitro MARylation assay", "type": "biochemical"}, "PARP1 [3]": {"biological_target": "T3, PARP1 (Homo sapiens, UniProt P09874)", "T3 sequence (P09874 whole entry)": "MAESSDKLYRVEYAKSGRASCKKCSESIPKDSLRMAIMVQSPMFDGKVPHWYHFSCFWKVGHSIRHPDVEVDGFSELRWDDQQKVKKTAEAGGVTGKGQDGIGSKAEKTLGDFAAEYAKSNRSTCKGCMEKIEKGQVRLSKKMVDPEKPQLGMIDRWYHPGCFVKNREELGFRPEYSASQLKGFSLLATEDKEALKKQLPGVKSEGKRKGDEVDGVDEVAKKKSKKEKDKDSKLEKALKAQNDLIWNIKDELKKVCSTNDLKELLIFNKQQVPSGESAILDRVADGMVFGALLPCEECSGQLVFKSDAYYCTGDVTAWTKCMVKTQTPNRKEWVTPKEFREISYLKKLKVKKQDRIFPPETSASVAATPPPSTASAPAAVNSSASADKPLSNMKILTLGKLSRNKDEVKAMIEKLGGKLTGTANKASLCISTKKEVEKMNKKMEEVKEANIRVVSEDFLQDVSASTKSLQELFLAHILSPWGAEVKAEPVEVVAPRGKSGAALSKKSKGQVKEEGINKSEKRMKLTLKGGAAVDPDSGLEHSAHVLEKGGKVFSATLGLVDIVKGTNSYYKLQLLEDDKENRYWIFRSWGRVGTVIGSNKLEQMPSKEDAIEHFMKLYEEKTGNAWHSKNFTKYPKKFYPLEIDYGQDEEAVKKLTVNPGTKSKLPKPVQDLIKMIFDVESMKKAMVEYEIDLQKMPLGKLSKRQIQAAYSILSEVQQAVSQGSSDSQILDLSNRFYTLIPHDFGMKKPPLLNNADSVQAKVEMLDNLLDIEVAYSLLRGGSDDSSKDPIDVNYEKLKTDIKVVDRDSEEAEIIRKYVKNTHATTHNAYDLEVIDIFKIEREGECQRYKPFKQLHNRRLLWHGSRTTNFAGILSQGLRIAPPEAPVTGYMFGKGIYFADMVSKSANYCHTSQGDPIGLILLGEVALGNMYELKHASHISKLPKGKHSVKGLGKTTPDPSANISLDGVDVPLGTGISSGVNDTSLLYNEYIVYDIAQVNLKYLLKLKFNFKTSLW", "test": "PASTA biochemical plate assay"}, "PARP1 [4]": {"biological_target": "T3, PARP1", "test": "Cellular PARylation assay in HEK 293T cells", "type": "cell-based"}, "SUMO-PARP16ΔTM": {"biological_target": "T4, SUMO-PARP16ΔTM (Homo sapiens, UniProt Q8N5Y8)", "T4 sequence (Q8N5Y8 1-287 limits assumed)": "T2 sequence (Q8N5Y8 1-287 limits assumed)", "test": "Whole-protein electrospray ionization", "type": "binding", "conditions": "50- or 100-fold excess of HJ-52"}, "PARP16 [5]": {"biological_target": "T1, PARP16", "test": "In vitro competition assay of DB008 labeling", "type": "binding", "conditions": "1 μM competitor, 40 min, then DB008 20 min"}},
  "note": "Peptide text beside a SMILES is read from it. * marks the point of attachment. Cbz = O=C(OCc1ccccc1)*",
  "data": [
    {"smiles": "O=C(c1cc(Cc2n[nH]c(=O)c3ccccc23)ccc1F)N1CCN(C(=O)C2CC2)CC1", "note": "[olaparib]", "values": [
      {"measurement": "IC50", "setting": "PARP16 [1]; read-out: PARP16 IC50", "value": "[…]"}
    ]},
    {"smiles": "CO/C1=C\\C(C)=C\\[C@@H](C)[C@@H](O)[C@@H](C)C/C(C)=C/C=C/[C@H](OC)[C@@H]([C@@H](C)[C@@H](O)[C@H](C)[C@@]2(O)C[C@@H](O)[C@H](C)[C@@H](C(C)C)O2)OC1=O", "note": "[bafilomycin A1]", "values": [
      {"measurement": "effect on PARP16 levels under amino acid and serum starvation", "setting": "PARP16 [2]", "value": "did not impact PARP16 levels"}
    ]},
    {"smiles": "C=CC(=O)N1CCN(C(=O)c2cc(Cc3n[nH]c(=O)c4ccccc34)ccc2F)CC1", "note": "[HJ-52, 4-(3-(4-acryloylpiperazine-1-carbonyl)-4-fluorobenzyl)phthalazin-1(2H)-one]", "values": [
      {"measurement": "IC50", "setting": "PARP16ΔTM", "value": 1180, "unit": "nM"},
      {"measurement": "fold more potent against PARP16 than olaparib", "setting": "PARP16ΔTM", "value": "about 2.5 fold"},
      {"measurement": "IC50", "setting": "PARP1 [3]", "value": 19, "unit": "nM"},
      {"measurement": "potency against PARP1 relative to olaparib", "setting": "PARP1 [3]", "value": "equipotent"},
      {"measurement": "potency against PARP1 in cellular PARylation assay", "setting": "PARP1 [4]", "value": "low nanomolar potency"},
      {"measurement": "covalent complex formation with SUMO-PARP16ΔTM", "setting": "SUMO-PARP16ΔTM", "value": "1 : 1 covalent complex"}
    ]},
    {"smiles": "CCN(CC)CCCC(C)Nc1ccnc2cc(Cl)ccc12", "note": "(centres unmarked) [chloroquine]", "values": [
      {"measurement": "effect on PARP16 levels under amino acid and serum starvation", "setting": "PARP16 [2]", "value": "did not impact PARP16 levels"}
    ]},
    {"smiles": "CC(C)C[C@@H](C=O)NC(=O)[C@H](CC(C)C)NC(=O)[C@H](CC(C)C)NC(=O)OCc1ccccc1", "note": "[MG132] (Cbz-Leu-Leu-Leu-aldehyde)", "values": [
      {"measurement": "effect on PARP16 levels under amino acid and serum starvation", "setting": "PARP16 [2]", "value": "did not impact PARP16 levels"}
    ]},
    {"smiles": "Cn1ncnc1[C@H]1c2n[nH]c(=O)c3cc(F)cc(c23)N[C@@H]1c1ccc(F)cc1", "note": "[talazoparib]", "values": [
      {"measurement": "competition of DB008 labeling", "setting": "PARP16 [5]", "value": "~70", "unit": "%"},
      {"measurement": "effect on PARP16 levels in RIPA-soluble fraction", "setting": "PARP16 [2]", "value": "increased, dose dependently"},
      {"measurement": "effect on starvation-induced increase of PARP16 in RIPA-insoluble fraction", "setting": "PARP16 [2]", "value": "counteracted in a dose-dependent manner"},
      {"measurement": "inhibition of recombinant PARP16", "setting": "PARP16 [1]", "value": "sub-micromolar potency"}
    ]}
  ]
}
